Reference: patent publication US20020045271A1, “COMPOUNDS AND METHODS FOR IDENTIFYING COMPOUNDS THAT INTERACT WITH MICROSOMAL TRIGLYCERIDE TRANSFER PROTEIN BINDING SITES ON APOLIPOPROTEIN B AND MODULATE LIPID BIOSYNTHESIS” (LICATA AND TYRRELL P.C., priority 1998, published 2002)
Each block holds one compound with its values, some of them ahead of it.

Assays:
[1] = target: T1, LDL/MTP binding (Bos taurus, UniProt P55156); experiment: Effect of compounds on binding of LDL to immobilized MTP (ELISA); parameters: species or system human
T1 sequence (P55156 12-887): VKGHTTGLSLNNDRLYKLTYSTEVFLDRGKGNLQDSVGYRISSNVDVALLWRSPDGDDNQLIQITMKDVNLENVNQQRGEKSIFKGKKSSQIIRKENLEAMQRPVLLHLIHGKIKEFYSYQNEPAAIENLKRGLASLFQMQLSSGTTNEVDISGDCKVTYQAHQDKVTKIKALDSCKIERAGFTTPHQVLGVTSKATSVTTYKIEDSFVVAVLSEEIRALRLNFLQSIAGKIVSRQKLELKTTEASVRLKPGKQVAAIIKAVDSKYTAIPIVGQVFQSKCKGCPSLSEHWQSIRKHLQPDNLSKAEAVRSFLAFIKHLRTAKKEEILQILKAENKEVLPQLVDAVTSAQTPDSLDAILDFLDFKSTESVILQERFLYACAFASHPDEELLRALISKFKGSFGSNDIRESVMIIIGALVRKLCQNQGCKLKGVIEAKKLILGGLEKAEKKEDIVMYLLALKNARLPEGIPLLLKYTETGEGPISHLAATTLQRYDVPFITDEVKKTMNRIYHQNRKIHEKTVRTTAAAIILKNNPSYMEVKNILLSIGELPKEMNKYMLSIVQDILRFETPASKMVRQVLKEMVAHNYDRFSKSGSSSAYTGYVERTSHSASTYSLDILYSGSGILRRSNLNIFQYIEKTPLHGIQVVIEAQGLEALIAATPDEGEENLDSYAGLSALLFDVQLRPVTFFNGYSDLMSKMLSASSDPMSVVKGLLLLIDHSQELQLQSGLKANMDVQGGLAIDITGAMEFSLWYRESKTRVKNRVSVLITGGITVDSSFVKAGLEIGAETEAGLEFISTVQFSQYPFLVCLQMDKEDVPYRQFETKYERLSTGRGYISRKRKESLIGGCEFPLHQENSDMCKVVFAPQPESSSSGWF
T1 sequence (P05307 21-510 partner): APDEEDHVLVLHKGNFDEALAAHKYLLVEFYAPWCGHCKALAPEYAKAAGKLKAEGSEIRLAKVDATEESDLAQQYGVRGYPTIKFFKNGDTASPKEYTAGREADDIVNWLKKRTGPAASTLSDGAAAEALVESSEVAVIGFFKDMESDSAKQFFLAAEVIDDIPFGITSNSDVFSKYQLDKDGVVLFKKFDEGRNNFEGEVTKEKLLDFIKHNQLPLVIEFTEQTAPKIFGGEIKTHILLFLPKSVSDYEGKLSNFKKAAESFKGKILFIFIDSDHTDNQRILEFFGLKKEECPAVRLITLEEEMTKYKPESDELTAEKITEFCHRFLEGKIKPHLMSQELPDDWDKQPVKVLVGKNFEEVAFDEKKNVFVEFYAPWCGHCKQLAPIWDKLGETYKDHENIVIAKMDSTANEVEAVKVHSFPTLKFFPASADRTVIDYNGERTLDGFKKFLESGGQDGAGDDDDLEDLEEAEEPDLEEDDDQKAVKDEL
Description: (§1) Studies were performed to determine whether apoB/MTP binding was required for secretion of apoB-containing lipoproteins. Several compounds were screened. In the absence of any test compound, 15.47 fmol of low density lipoproteins (LDL)which contain ApoB was bound to immobilized MTP. Two test compounds, AGI-3 and AGI-S17, inhibited 70 to 90% of the binding at 40-50 μM concentrations. […] The effect of these same compounds on MTP's lipid transfer activity was also evaluated. BMS-200150 inhibited triglyceride transfer activity by 60% at concentrations in the range of 20 to 50 μM. AGI-3 inhibited only 20-30% of the activity at these same concentrations.
ELISA plates coated in triplicate with purified heterodimeric MTP (1 μg/well) were incubated with human LDL (1 μg/well) in the presence of indicated concentrations of various compounds. Microtiter wells were washed three times with PBS-Tween and apoB bound was quantitated by a sandwich ELISA (Hussain, M. M. et al. 1995 Arterioscl. Thronb. Vasc. Biol. 15:485-494). In parallel, a standard curve for apoB was generated by coating wells with a monoclonal antibody, 1D1, and incubating with different concentrations of LDL (0-14 ng/well) as previously described (Hussain, M. M. et al. 1995 Arterioscl. Thromb . Vasc. Biol. 15:485-494).

[2] = target: T2, MTP (Bos taurus, UniProt P55156); experiment: MTP triglyceride transfer activity; format: biochemical; settings: 20 to 50 μM
T2 sequence (P55156 12-887): T1 sequence (P55156 12-887)
T2 sequence (P05307 21-510 partner): T1 sequence (P05307 21-510 partner)
Description: as §1

[3] = target: T1, LDL/MTP binding; experiment: Effect of lipid vesicles on binding of LDL to immobilized MTP; settings: for effect of inclusion in PC vesicles on PC-stimulated binding of LDL to MTP: added to PC vesicles
Description: The effect of lipids on the binding of MTP with apoB was also examined. Phosphatidylcholine (PC) and sphingomyelin increased the interactions by 2 and 1.5 times respectively. In similar studies, PC vesicles at a concentration of 2.4 mM increased the binding of LDL to MTP by 2 to 4 times. As a control, the effect of phospholipids on the binding of LDL to the monoclonal antibody 1D1 and polyclonal antibodies was studied. 1D1 binds to a portion of the MTP specific binding site on apoB. This antibody also recognizes all subclasses of VLDL and LDL, as well as delipidated apoB. […] The effect of PC vesicles on the interaction of apoB to polyclonal antibodies was studied by incubating immobilized LDL with the antibodies both in the presence and absence of PC. PC vesicles had no effect on binding.
To study the effect of triglycerides (TG) on apoB/MTP specific binding, PC vesicles or emulsions containing two different concentrations of TG were prepared and their effect on LDL binding to MTP was compared with those of PC vesicles with no TG.
The effect of different lipids was studied in more detail using PC-based vesicles (Table 3). Again, PC vesicles increased the binding of LDL to MTP by 3-fold.
Required amounts of lipids in chloroform were added to a glass vial and the solvent was evaporated under nitrogen gas. A calculated amount of the buffer (15 mM Tris-HCl, 1 mM EDTA, 0.02% sodium azide, pH 7.4) was added, and the contents were sonicated (setting 5, output 50-60%) on ice until the solution was mostly clear. The vesicles were then centrifuged at 3500 rpm for 15 minutes, 4° C., and the supernatant used to assay the effect of vesicles on binding.
LDL (20 nM) was incubated with immobilized MTP (1 μg/ml) in the presence and absence of different concentrations of PC or sphingomyelin vesicles for 2 hours at 37° C. and the amount of LDL bound quantitated. The amount of LDL bound in the absence of lipid vesicles was used as 100%. Parallel experiments were also performed wherein LDL (78 pM) was incubated with immobilized monoclonal antibody, 1D1, instead of MTP. LDL (20 nM) was also incubated with immobilized MTP in the presence of different concentrations of PC, PC/TG (molar ratio 400:1) vesicles, or PC/TG dispersions (molar ratio 1:1) for 2 hours at 37° C., and the amount of apoB bound was quantitated by ELISA.

[4] = target: T3, immobilized LDL (Homo sapiens, UniProt P04114); experiment: Binding of apoA-I and apoA-I/lipid complexes to immobilized LDL
Description: The binding of apoA-I and apoA-I/lipid complexes to immobilized LDL was examined. ApoA-I incubated with or without lipid vesicles was subjected to ultracentrifugation and apoA-I/lipid complexes were isolated. Binding of apoA-I and apoA-I/lipid complexes to immobilized LDL was then examined.
Target sequence in this assay (P04114 28-4563): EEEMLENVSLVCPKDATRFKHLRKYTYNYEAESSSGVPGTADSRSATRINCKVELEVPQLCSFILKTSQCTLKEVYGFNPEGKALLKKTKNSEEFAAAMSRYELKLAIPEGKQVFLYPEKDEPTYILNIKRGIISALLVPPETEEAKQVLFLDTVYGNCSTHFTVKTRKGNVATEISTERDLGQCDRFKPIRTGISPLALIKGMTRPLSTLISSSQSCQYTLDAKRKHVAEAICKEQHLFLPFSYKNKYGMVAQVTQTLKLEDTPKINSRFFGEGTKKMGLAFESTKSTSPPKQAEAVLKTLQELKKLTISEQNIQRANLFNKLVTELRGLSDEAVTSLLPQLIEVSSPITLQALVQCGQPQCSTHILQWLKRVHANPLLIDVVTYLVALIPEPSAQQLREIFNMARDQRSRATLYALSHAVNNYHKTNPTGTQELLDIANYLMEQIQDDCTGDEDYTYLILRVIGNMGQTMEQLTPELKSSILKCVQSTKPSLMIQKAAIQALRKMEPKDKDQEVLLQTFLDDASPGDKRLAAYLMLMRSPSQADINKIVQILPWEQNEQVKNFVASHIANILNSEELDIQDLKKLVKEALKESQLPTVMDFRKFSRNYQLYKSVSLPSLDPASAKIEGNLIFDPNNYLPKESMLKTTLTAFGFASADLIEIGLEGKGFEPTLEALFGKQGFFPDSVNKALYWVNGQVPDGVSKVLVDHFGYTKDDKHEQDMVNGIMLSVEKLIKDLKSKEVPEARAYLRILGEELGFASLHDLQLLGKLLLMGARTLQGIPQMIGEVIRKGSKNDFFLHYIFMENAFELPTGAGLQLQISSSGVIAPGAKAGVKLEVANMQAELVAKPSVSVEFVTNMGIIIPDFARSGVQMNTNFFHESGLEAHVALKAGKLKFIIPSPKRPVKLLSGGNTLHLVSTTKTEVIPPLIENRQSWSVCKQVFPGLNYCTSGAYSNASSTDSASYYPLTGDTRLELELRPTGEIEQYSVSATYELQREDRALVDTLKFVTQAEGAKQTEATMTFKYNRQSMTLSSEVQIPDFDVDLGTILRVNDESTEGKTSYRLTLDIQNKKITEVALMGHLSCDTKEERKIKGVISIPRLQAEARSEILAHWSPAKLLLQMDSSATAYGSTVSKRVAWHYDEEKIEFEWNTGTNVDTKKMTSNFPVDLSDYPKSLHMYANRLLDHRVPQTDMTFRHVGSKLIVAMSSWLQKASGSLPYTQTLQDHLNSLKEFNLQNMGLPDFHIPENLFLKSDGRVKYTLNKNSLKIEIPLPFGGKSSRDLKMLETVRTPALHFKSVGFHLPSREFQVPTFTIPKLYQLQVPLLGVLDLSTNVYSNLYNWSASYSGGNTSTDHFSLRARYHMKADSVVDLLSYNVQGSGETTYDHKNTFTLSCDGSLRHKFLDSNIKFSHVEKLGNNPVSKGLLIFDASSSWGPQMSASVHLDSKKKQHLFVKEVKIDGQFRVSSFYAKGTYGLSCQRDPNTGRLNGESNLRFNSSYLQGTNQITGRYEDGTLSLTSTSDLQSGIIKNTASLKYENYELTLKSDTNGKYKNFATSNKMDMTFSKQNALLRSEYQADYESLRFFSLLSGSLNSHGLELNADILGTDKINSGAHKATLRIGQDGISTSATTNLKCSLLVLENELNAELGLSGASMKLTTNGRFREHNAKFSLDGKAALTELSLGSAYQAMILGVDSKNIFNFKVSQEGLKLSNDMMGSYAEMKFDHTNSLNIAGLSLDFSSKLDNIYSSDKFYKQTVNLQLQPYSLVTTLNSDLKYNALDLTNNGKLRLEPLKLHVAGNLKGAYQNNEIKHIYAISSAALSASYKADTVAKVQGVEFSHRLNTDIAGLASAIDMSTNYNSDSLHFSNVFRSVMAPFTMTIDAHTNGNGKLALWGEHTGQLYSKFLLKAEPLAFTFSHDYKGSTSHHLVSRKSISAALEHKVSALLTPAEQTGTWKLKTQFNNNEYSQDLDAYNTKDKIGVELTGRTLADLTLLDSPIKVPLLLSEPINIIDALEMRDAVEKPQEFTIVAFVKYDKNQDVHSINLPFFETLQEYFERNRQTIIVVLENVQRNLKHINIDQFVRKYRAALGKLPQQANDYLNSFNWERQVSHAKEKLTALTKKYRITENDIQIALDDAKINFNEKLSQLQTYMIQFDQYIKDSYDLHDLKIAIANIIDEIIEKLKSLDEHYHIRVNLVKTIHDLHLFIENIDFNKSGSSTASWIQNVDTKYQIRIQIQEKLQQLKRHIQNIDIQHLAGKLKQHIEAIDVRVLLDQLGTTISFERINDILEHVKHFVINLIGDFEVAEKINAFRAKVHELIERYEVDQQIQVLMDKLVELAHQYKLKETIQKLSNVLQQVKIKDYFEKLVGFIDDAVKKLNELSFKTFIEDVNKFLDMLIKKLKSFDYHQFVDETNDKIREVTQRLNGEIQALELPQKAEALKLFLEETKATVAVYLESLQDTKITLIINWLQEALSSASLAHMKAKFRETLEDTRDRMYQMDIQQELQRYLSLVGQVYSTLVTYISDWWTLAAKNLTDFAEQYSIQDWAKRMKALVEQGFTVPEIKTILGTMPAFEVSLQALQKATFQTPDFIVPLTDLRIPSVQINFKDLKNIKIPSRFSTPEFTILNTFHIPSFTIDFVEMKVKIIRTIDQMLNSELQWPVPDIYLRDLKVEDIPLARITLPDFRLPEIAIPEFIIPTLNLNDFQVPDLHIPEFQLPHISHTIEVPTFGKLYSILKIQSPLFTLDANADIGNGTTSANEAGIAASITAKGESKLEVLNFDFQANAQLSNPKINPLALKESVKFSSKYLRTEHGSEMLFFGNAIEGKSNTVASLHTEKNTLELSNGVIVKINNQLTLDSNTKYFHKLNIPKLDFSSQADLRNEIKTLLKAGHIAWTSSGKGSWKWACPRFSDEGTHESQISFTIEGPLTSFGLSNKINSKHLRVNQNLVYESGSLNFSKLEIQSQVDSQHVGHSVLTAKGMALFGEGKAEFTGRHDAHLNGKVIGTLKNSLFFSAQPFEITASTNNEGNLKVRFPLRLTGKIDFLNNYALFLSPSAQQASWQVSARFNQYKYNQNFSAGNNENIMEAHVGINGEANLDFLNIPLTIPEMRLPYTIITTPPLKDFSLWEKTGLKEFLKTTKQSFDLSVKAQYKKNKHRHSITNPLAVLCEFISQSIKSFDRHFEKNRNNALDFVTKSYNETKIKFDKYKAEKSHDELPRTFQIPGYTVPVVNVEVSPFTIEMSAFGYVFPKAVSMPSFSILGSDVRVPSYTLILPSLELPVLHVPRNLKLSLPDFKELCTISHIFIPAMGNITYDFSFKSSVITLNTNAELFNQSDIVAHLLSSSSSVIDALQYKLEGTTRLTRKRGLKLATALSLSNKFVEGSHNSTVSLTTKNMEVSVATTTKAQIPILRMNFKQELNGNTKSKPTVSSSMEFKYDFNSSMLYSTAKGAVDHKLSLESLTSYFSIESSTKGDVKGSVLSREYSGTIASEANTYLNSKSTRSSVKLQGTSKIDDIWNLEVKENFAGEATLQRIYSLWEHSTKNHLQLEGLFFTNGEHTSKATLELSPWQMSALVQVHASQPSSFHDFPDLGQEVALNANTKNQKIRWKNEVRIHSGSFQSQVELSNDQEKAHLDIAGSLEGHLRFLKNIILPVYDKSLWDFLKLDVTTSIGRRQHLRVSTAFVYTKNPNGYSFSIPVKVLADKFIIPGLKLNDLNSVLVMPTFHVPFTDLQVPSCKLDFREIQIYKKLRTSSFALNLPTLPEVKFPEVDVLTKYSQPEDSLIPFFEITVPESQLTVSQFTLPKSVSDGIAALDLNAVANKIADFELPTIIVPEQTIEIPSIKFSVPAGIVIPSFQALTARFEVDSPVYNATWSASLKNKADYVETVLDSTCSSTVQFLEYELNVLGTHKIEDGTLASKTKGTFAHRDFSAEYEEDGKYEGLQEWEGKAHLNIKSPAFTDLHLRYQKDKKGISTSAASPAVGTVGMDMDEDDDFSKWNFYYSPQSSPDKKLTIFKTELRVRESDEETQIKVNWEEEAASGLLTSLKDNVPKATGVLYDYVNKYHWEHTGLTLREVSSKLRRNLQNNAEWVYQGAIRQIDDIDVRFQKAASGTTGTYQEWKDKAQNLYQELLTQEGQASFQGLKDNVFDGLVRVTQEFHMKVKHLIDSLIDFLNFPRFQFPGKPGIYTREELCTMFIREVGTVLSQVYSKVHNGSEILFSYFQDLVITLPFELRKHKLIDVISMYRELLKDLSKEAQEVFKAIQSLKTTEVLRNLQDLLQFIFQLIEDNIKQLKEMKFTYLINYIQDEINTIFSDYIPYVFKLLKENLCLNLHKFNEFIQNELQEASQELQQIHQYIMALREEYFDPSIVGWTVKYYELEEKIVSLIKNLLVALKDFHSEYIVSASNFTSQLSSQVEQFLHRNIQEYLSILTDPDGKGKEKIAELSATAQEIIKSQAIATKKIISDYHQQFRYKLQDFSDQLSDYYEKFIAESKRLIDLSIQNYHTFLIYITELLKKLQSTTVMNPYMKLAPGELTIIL

[5] = target: T3, immobilized LDL; experiment: Binding of 125I-MTP / MTP fractions to immobilized LDL
Description: The effect of phospholipids on the kinetic parameters of apoB-MTP binding was examined. […] No significant binding of LDL to MTP could be observed at low concentrations (≦3 nM) in the absence of vesicles. However, the effect of vesicles was significant at ≦12.5 nM of LDL. […] In four other experiments, decreases in Kd ranged between 1.5- to 3-fold. The effect of phospholipid vesicles on the binding of ^125I-MTP to immobilized LDL was also examined.
To study the binding of lipid associated MTP with LDL, peaks A, B, and C were pooled, dialyzed and then used to study binding to immobilized LDL. The binding of lipid-poor MTP (peak B), which might have acquired few lipid molecules during its incubation with lipid vesicles, to LDL was increased (70%, P<0.005) compared to the binding of MTP not incubated with lipids (peak A). […] These studies indicate that lipid-associated MTP binds better to LDL as compared to lipid-poor and lipid-free MTP. It is believed that MTP forms stable complexes with phospholipid vesicles and these MTP/lipid complexes have higher affinity for apoB.
Target sequence in this assay (P04114 28-4563, one chain of several): as the sequence (P04114 28-4563) above

- effect on LDL/MTP binding [1]: did not effect LDL/MTP binding
- inhibition of triglyceride transfer activity [2]: 60%
Compound: O=C1c2ccccc2CN1C1CCN(CCC(c2ccccc2)c2ccccc2)CC1 [BMS-200150]

- effect of inclusion in PC vesicles on PC-stimulated binding of LDL to MTP [3]: no additional effect
Compound: CC(C)CCC[C@@H](C)[C@H]1CC[C@H]2[C@@H]3CC=C4C[C@@H](O)CC[C@]4(C)[C@H]3CC[C@]12C [cholesterol]

- binding to immobilized LDL compared to free apoA-I [4]: significantly less
Compound: apoA-I/lipid complexes: apoA-I incubated with lipid vesicles, complexes isolated by ultracentrifugation

- increase of binding to immobilized LDL compared to MTP not incubated with lipids (peak A) ([5]; P<0.005): 70%
Compound: peak B: lipid-poor MTP fraction recovered after incubation with PC vesicles, fractions 21-24

- amount bound to LDL compared to MTP alone [5]: three-fold higher
Compound: peak C: MTP associated with lipid vesicles, fractions 3-9

- effect of inclusion in PC vesicles on PC-stimulated binding of LDL to MTP [3]: significantly decreased
Compound: phosphatidyl inositol [PI]

- effect of inclusion in PC vesicles on PC-stimulated binding of LDL to MTP [3]: significantly decreased
Compound: phosphatidyl serine [PS]

- effect on LDL binding to MTP ([3]; PC vesicles with or without TG): no additional effect
Compound: triglycerides [TG]
